# Laboratory results as given in publication PMC8232704, “Hydrophobic Tagging-Mediated Degradation of Transcription Coactivator SRC-1” (International Journal of Molecular Sciences, 2021).
# Bridge positions count the residues as written; N and C are the ends. Square brackets hold non-standard residues; d marks the D form. Peptide text beside a SMILES is read from it. N(1-adamantyl)Gly = O=C(O)CNC12CC3CC(CC(C3)C1)C2; Cha = N[C@@H](CC1CCCCC1)C(=O)O; S5 = C=CCCC[C@](C)(N)C(=O)O; PEG3 = NCCOCCOCCOCCC(=O)O
# Tests used:
# [1] = Circular dichroism (CD), calculated helicity; type: physicochemical; conditions: 50 μM peptide in 30% PBS (pH 7.4) and 70% acetonitrile, calculated from CD spectra
# Method: Lyophilized compounds (YL2 and YL2-HyT1 through YL2-HyT6) were dissolved in 30% PBS (pH 7.4) and 70% acetonitrile solution to a final concentration of 50 μM. CD spectra were measured with a Jasco J-815 CD spectropolarimeter using a quartz cuvette (2 mm path length). These spectra were averages of five successive accumulations with a scan rate of 100 nm/min. Raw data were converted in terms of per-residue molar ellipticity (deg·cm^2·dmol^−1·residue^−1) as calculated per mole of amide groups present and normalized by the molar concentration of peptides. Smoothing and correction of background spectra were performed with Origin Pro 8.0 (OriginLab Corporation, Northampton, MA, USA). Then α-helical propensities of YL2 and YL2-HyT1 through YL2-HyT6 were calculated as previously reported.
# [2] = Serum stability in FBS; type: in vitro ADME, bovine; conditions: 40 μM in DPBS containing 25% FBS, 37 °C, 0–24 h, LC–MS, normalized to control without FBS
# Method: YL2-HyT6 and ND1-YL2 solutions (200 μL, 40 μM in DPBS containing 25% FBS) were incubated at 37 °C for different time periods (0–24 h). For the precipitation of serum proteins, each sample was treated with 100 μL of 15% TFA and incubated at 4 °C overnight. Final samples were then centrifuged at 15,000 rpm for 10 min and filtrated for analysis using LC–MS with a C18 column. The ratio of the remaining compound (%) was calculated by integrating the chromatographic peak of a compound and normalized in comparison with a control sample (incubated without FBS).
# [3] = system: CSF-1 mRNA in MDA-MB-231 cells; assay: RT-qPCR of CSF-1 mRNA; type: cell-based, human; conditions: 18 h, RT-qPCR normalized to 18S
# Method: Quantitative real-time PCR was performed for CSF-1, E-cadherin, and 18S (as a reference gene) mRNAs. MDA-MB-231 cells (1.2 × 10^5 cells/well) were seeded into a 12-well plate and incubated at 37 °C with 5% CO2 for 24 h. These cells were treated with indicated compounds (YL2, adamantane, ND1-YL2, or YL2-HyT6) for 18 h in Opti-MEM medium. After cells were washed with cold DPBS, mRNAs were isolated from these cells using an AccuPrep Universal RNA extraction kit (Bioneer, Daejeon, Korea). Then 1.5 µg of mRNAs were reverse-transcribed using AccuPower RocketScript Cycle RT PreMix (Bioneer) to generate complementary DNAs. RT-qPCR for CSF-1, E-cadherin, and 18S was performed with a StepOnePlus Real-Time PCR System (Applied Biosystems, Waltham, MA, USA) and SYBR Green mix (Applied Biosystems) according to the manufacturer’s instructions with gene-specific primers (Table 1).
# [4] = system: MDA-MB-231 cells; assay: Gap closure migration (wound healing) assay; type: cell-based, human; conditions: 20 µM, 72 h
# Method: MDA-MB-231 cells (2.8 × 10^4 cells/well) were seeded into Culture-Insert 2 wells (ibidi, 80209) placed in a 35 mm culture dish. After incubation at 37 °C with 5% CO2 for 24 h, Culture-Insert 2 wells were carefully removed from the culture dish with a sterilized tweezer. These cells were then treated with indicated compounds (YL2, adamantane, ND1-YL2, or YL2-HyT6) in Opti-MEM medium for 72 h. Cell images were obtained with a culture microscope (Olympus, Tokyo, Japan, CKX41). The cell-free area of the image was quantified with ImageJ software (NIH, Bethesda, MD, USA). The relative gap-closure area was calculated using the following equation: […] where A was the cell-free area. (2) Gap−Closure %=At=0 h−At=72 h/At=0 h×100
# [5] = system: MDA-MB-231 cells; assay: Matrigel transwell invasion assay; type: cell-based, human; conditions: Matrigel chambers, 24 h
# Method: Matrigel invasion chambers (Corning 354480) were placed in 24-well plates and rehydrated with FBS-free DMEM medium at 37 °C in a CO2 incubator for 2 h. After removing the medium, 4 × 10^4 cells of MDA-MB-231 were seeded into Matrigel invasion chambers and control chambers (Corning, 354578) with 125 µL of Opti-MEM medium. Then another 125 µL of each compound (YL2, adamantane, ND1-YL2, or YL2-HyT6) in Opti-MEM medium was added to each chamber. The bottom of the well was filled with 500 µL of DMEM medium containing 10% FBS 1% PS. The chambers were then incubated at 37 °C with 5% CO2 for 24 h. After removing the medium, the chambers were washed with cold PBS. Then noninvading cells on the upper surface of the membrane were removed by scrubbing with a cotton swab. Cells on the bottom side of the membrane were fixed with 500 µL of 4% formaldehyde for 10 min at rt. After washing with PBS, the bottom side of the chamber was stained with 500 µL of Hoechst 33342 (5 µg/mL) for 5 min at 37 °C in the CO2 incubator. […] The percent invasion (% invasion) of each sample was determined with the following equation:(3) % Invasion=Mean # of cells invading through Matrigel chamber membrane/Mean # of cells migrating through control chamber membrane×100
# [6] = system: HEK293T cells; assay: Cell viability assay (Cyto X); type: cell-based, human; conditions: 48 h, Opti-MEM
# Method: (§1) MDA-MB-231 (1 × 10^4 cells/well) and HEK293T (1 × 10^4 cells/well) cells were seeded into a 96-well plate (Corning, 3595) and incubated at 37 °C with 5% CO2 for 24 h. These cells were then washed twice with DPBS and treated with 1% DMSO or various concentrations of YL2-HyT6 for 48 h in Opti-MEM medium. The remaining cells were then used to measure cell viability using a Cyto X cell viability assay kit (LPS solution, Daejeon, Korea, CYT3000) following the manufacturer’s instruction.
# [7] = system: MDA-MB-231 cells; assay: Cell viability assay (Cyto X); type: cell-based, human; conditions: 48 h, Opti-MEM
# Method: as §1
compound,measurement,setting,value
CC(C)C[C@H](NC(=O)CCOCCOCCOCCNC(=O)CNC12CC3CC(CC(C3)C1)C2)C(=O)N[C@@H](CC(C)C)C(=O)N1CCC[C@H]1C(=O)N1CCC[C@H]1C(=O)N[C@H](C(=O)N[C@@H](CCC(=O)O)C(=O)N[C@@H](CCC(N)=O)C(=O)N[C@@H](CC(=O)O)C(=O)N[C@@H](CC(C)C)C(=O)N[C@@]1(C)CCC/C=C\CCC[C@@](C)(C(=O)N[C@@H](Cc2ccc(O)cc2)C(N)=O)NC(=O)[C@H](CC2CCCCC2)NC(=O)[C@H](CC(C)C)NC(=O)[C@H](CCCCN)NC1=O)[C@@H](C)O [YL2-HyT6] (H-[N(1-adamantyl)Gly][PEG3]LLPPTEQDL[S5]KL[Cha][S5]Y-NH2; staple (Z) 12-16; C-terminus assumed),Helicity (%),[1],32.6%
same,Serum stability (remaining compound),[2],improved stability relative to the peptide-based PROTAC (ND1-YL2)
same,CSF-1 mRNA expression level,[3],dose-dependent decrease in CSF-1
same,Wound gap closure (cell migration),[4],significantly inhibited gap closing
same,Cell invasion,[5],remarkably decreased the invasion
same,Cell viability,[6],little effect on cell viability
same,Cell viability,[7],little effect on cell viability
